Results reported in patent publication US12162859B2, “Crystalline and amorphous forms of a compound for the targeted degradation of estrogen receptor” (Arvinas Operations, Inc., priority 2020, dated 2024).
Values after ≈ are worked out from the molar mass of the structure shown.

What was measured:
Type in all cases: physicochemical
[1] = Relative stability of the four identified polymorphic forms
Description: A summary of the relevant characteristics of Form I is found below in Table 10: […]

[2] = Thermodynamic solubility of Form I in solvents and aqueous pH media; conditions: for solubility thermodynamic: thermodynamic from solid
[3] = Hygroscopicity (DVS water uptake at 90% RH)
[4] = 1 week stability of Form I under storage conditions

With `O=C1CC[C@H](N2Cc3cc(N4CCN(CC5CCN(c6ccc([C@@H]7c8ccc(O)cc8CC[C@@H]7c7ccccc7)cc6)CC5)CC4)ccc3C2=O)C(=O)N1` [Form I, (S)-3-(5-(4-((1-(4-((1R,2S)-6-hydroxy-2-phenyl-1,2,3,4-tetrahydronaphthalen-1-yl)phenyl)piperidin-4-yl)methyl)piperazin-1-yl)-1-oxoisoindolin-2-yl)piperidine-2,6-dione] the “Stability relative to the other identified forms” value [1] was “most stable”, the “Solid form recovered in thermodynamic solubility test” value (“Solid form recovered” for short) ([2]; 1-Butanol) was “Form I” and the solubility thermodynamic ([2]; 1-butanol, organic solvent or mixture) was 500 µg/mL (≈ 691 µM). The “Solid form recovered” value ([2]; Acetone) was “Form I (PO)”, the solubility thermodynamic ([2]; DCM:methanol (90:10 v/v), organic solvent or mixture) was greater than 67000 µg/mL and the “Solid form recovered” value ([2]; Dichloromethane) was “Form I (PO)”. For the same compound, the “Solid form recovered” value ([2]; Ethanol) was “Form I”, the “Solid form recovered” value ([2]; Methanol) was “Form I” and the solubility thermodynamic ([2]; N,N′-dimethylacetamide, organic solvent or mixture) was greater than 100000 µg/mL. The solubility thermodynamic ([2]; THF, organic solvent or mixture) was greater than 67000 µg/mL, the solubility thermodynamic ([2]; acetone, organic solvent or mixture) was 4000 µg/mL (≈ 5530 µM) and the solubility thermodynamic ([2]; aqueous pH medium, pH 1, simulated gastric fluid) was 100 µg/mL (≈ 138 µM). It also gave a solubility thermodynamic ([2]; aqueous pH medium, pH 4, aqueous buffer) of less than 50 µg/mL, a solubility thermodynamic ([2]; aqueous pH medium, pH 5, aqueous buffer) of less than 50 µg/mL and a solubility thermodynamic ([2]; aqueous pH medium, pH 6, aqueous buffer) of less than 50 µg/mL. The solubility thermodynamic ([2]; dichloromethane, organic solvent or mixture) was 14800 µg/mL (≈ 20400 µM), the solubility thermodynamic ([2]; ethanol, organic solvent or mixture) was 800 µg/mL (≈ 1110 µM) and the solubility thermodynamic ([2]; methanol, organic solvent or mixture) was 1100 µg/mL (≈ 1520 µM). For the same compound, the “Solid form recovered” value ([2]; pH 1) was “Form I”, the “Solid form recovered” value ([2]; pH 4) was “Amorphous” and the “Solid form recovered” value ([2]; pH 5) was “Form I”. For the same compound, the “Solid form recovered” value ([2]; pH 6) was “Form I”, the “Hygroscopicity (water uptake at 90% RH)” value ([3]; 90% RH) was 1.7% and the hygroscopicity ([3]; at 90% RH) was 1.7 wt. %. For the same compound, the “Post-DVS XRPD” value ([3]; solid form by XRPD after DVS) was “Form I”, the “1 Week Stability, solid form” value ([4]; 40° C./75% RH) was “Form I” and the “1 Week Stability, solid form” value ([4]; 80° C.) was “Form I”. For the same compound, the “1 Week Stability, solid form” value ([4]; Ambient) was “Form I”.
